These results are taken from ChEMBL document CHEMBL1201862, “PubChem BioAssay data set” (2004).

The GI50 is the concentration at which growth is held to half of that of the control.

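All cell lines were grown in 96-well plates and treated with compound for 48 hours. At the GI50, growth is halved.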 Calls of active or inactive are those of the source. Cut-off read from the data, not from the text of the source: active = GI50 up to about 1.1 µM and inactive = higher.

Test systems include 786-0; OVCAR-4; NCI/ADR-RES; UO-31; HL-60; U-251; IGROV-1; SF-539; SK-MEL-28; NCI-H23; K562; RPMI-8226; SR; PC-3; CCRF-CEM; CAKI-1; LOX IMVI; HCT-15; SK-MEL-5; UACC-257.
What all share (test): DTP human tumour cell line panel, 48 h

As to `O=C(OCc1ccccc1)C(Cc1ccc(OCc2ccccc2)cn1)NC(=O)C(F)(F)F` (stereo not given), the GI50 with 786-0 was > 100 µM (inactive); with OVCAR-4, > 100 µM (inactive); in the assay with NCI/ADR-RES, > 100 µM (inactive); in the assay on UO-31 it was 65.5 µM (inactive); in the assay with HL-60 it was 56.2 µM (inactive); in the assay on U-251, 72.3 µM (inactive). Moreover, the GI50 with IGROV-1 is > 100 µM (inactive); in the assay on SF-539 it was > 100 µM (inactive); with SK-MEL-28, > 100 µM (inactive); in the assay on NCI-H23, 86.9 µM (inactive); with K562, 42.8 µM (inactive); with RPMI-8226, 92.5 µM (inactive). The GI50 with SR is 86.9 µM (inactive); with PC-3, > 100 µM (inactive); in the assay on CCRF-CEM it was > 10 µM (inactive); in the assay on CAKI-1 it was > 100 µM (inactive); in the assay with LOX IMVI, 92.3 µM (inactive); with HCT-15, 46.3 µM. Besides, the GI50 in the assay on SK-MEL-5 is 35.4 µM (inactive); with UACC-257, > 100 µM (inactive).
Consider `c1csc(-c2ccsc2-c2ccsc2)c1`, for which the GI50 was 97.3 µM (inactive) in the assay with 786-0; 84.1 µM (inactive) with OVCAR-4; 76 µM (inactive) in the assay with NCI/ADR-RES; 80 µM (inactive) in the assay with UO-31; 33.1 µM (inactive) in the assay on HL-60; > 100 µM (inactive) in the assay on U-251. The GI50 in the assay on IGROV-1 is > 100 µM (inactive); in the assay on SF-539, > 100 µM (inactive); in the assay with SK-MEL-28, > 100 µM (inactive); in the assay on NCI-H23, 43.5 µM (inactive); in the assay with K562, 73.8 µM (inactive); in the assay on RPMI-8226, 30.2 µM (inactive). Further, the GI50 in the assay with SR was 33.1 µM (inactive); in the assay with PC-3 it was 41.3 µM (inactive); with CCRF-CEM, 45.2 µM (inactive); in the assay with CAKI-1 it was > 100 µM (inactive); in the assay with LOX IMVI, > 100 µM (inactive); in the assay on HCT-15, 39.8 µM. Further, the GI50 in the assay on SK-MEL-5 was 70 µM (inactive); in the assay with UACC-257 it was > 100 µM (inactive).
Consider `CCOC(=O)CC[C@H](NC(=O)N[C@H](C)c1ccccc1)C(=O)OCC`, for which the GI50 in the assay on 786-0 was 37.9 µM (inactive); in the assay on OVCAR-4, 52.1 µM (inactive); with NCI/ADR-RES, 22.8 µM (inactive); with UO-31, 29.2 µM (inactive); with HL-60 it was > 100 µM (inactive); in the assay on U-251 it was 39.8 µM (inactive). The GI50 in the assay with IGROV-1 was 20.8 µM (inactive); in the assay on SF-539, 14.7 µM (inactive); in the assay with SK-MEL-28, 20.9 µM (inactive); in the assay with NCI-H23, 89.1 µM (inactive); in the assay on K562, 36.1 µM (inactive); with RPMI-8226 it was 41 µM (inactive). Besides, the GI50 was 84.9 µM (inactive) in the assay on SR; 84.7 µM (inactive) with PC-3; 22.6 µM (inactive) in the assay with CCRF-CEM; > 100 µM (inactive) in the assay with CAKI-1; 55.7 µM (inactive) in the assay on LOX IMVI; above 100 µM with HCT-15. The GI50 in the assay with SK-MEL-5 was 37 µM (inactive); with UACC-257, 18.3 µM (inactive).
As to `COc1cc2c3c(cc(Cl)nc3c1OC)C(=O)C(=O)N2`, the GI50 with 786-0 was 5.94 µM (inactive); in the assay on OVCAR-4, 1.6 µM (inactive); in the assay on NCI/ADR-RES, 22.5 µM (inactive); in the assay on UO-31, 13.6 µM (inactive); with HL-60 it was 1.36 µM (inactive); in the assay with U-251, 16.5 µM (inactive). Further, the GI50 in the assay on IGROV-1 was 9.89 µM (inactive); in the assay with SF-539, 20.2 µM (inactive); in the assay with SK-MEL-28, 17.1 µM (inactive); with NCI-H23, 16.7 µM (inactive); in the assay with K562 it was 2.91 µM (inactive); in the assay on RPMI-8226, 2.68 µM (inactive). For the same molecule, the GI50 in the assay with SR is 3.26 µM (inactive); in the assay on PC-3, 14.5 µM (inactive); in the assay on CCRF-CEM, 1.69 µM (inactive); in the assay on CAKI-1 it was 15.1 µM (inactive); in the assay on LOX IMVI, 9.44 µM (inactive); in the assay with HCT-15, 19.2 µM. Besides, the GI50 in the assay with SK-MEL-5 is 16.4 µM (inactive); with UACC-257, 8.39 µM (inactive).
Consider `C=C(Br)CN(C#N)CC(=C)Br`, for which the GI50 in the assay on 786-0 was > 100 µM (inactive); in the assay with OVCAR-4, > 100 µM (inactive); in the assay with NCI/ADR-RES it was > 100 µM (inactive); in the assay on UO-31 it was > 100 µM (inactive); with HL-60 it was 8.85 µM (inactive); with U-251, > 100 µM (inactive). Further, the GI50 in the assay with IGROV-1, in the assay with SF-539, in the assay with SK-MEL-28, in the assay on NCI-H23, in the assay on K562 and in the assay on RPMI-8226 was > 100 µM (inactive) each time. Besides, the GI50 in the assay on SR was > 100 µM (inactive); in the assay on PC-3 it was > 100 µM (inactive); with CCRF-CEM, > 100 µM (inactive); in the assay on CAKI-1, > 100 µM (inactive); with LOX IMVI it was > 100 µM (inactive); in the assay with HCT-15, above 100 µM. In addition, the GI50 in the assay with SK-MEL-5 and in the assay with UACC-257 was > 100 µM (inactive) each time.
With `Cn1c2ccccc2n2c(=O)c3cc([N+](=O)[O-])ccc3c(C#N)c12`, the GI50 is 22.3 µM (inactive) in the assay on 786-0; 65.6 µM (inactive) in the assay on OVCAR-4; > 100 µM (inactive) in the assay with NCI/ADR-RES; > 100 µM (inactive) with UO-31; > 100 µM (inactive) in the assay on HL-60; > 100 µM (inactive) in the assay on U-251. Moreover, the GI50 with IGROV-1 was > 100 µM (inactive); with SF-539, 50.4 µM (inactive); in the assay with SK-MEL-28, > 100 µM (inactive); with NCI-H23, > 100 µM (inactive); in the assay on K562, > 100 µM (inactive); in the assay with RPMI-8226, > 100 µM (inactive). The GI50 with SR is > 100 µM (inactive); in the assay with PC-3 it was > 100 µM (inactive); with CCRF-CEM it was > 100 µM (inactive); in the assay with CAKI-1, > 10 µM (inactive); in the assay on LOX IMVI, > 100 µM (inactive); in the assay with HCT-15 it was above 100 µM. Moreover, the GI50 in the assay with SK-MEL-5 and in the assay on UACC-257 was > 100 µM (inactive) in each case.
